Experimental data reported in patent publication US9987256B2, “CFTR corrector for the treatment of genetic disorders affecting striated muscle” (UNIVERSITA' DEGLI STUDI DI PADOVA, priority 2012, dated 2018).

Molecular target: T1, V247M mutant of alpha-sarcoglycan (Homo sapiens, UniProt Q16586, V247M)
T1 construct: expressed in transfected cells; host or cells: HEK 293
T1 sequence (Q16586 24-387 V247M): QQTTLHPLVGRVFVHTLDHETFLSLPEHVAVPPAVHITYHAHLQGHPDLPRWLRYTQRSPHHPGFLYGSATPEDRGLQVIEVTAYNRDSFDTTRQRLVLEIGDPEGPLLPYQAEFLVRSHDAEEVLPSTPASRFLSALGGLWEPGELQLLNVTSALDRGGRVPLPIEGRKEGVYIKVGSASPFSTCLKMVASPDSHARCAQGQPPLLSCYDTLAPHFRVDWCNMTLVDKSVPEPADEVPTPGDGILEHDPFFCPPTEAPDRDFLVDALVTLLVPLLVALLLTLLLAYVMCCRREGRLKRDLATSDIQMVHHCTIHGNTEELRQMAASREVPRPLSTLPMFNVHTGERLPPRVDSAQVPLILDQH
Assay: Confocal immunofluorescence, membrane localization of V247M alpha-sarcoglycan in HEK293 cells
Type: cell-based
Settings: FIG. 2; HEK293, 24 hours; E 10 μM, D 10 μM, MG132 positive control; not permeabilized cells
Experimental: The cellular localization of either the V247M or R98H mutants, upon corrector treatments, has been verified by confocal immunofluorescence.
In the experiment reported in FIG. 2, HEK 293 cells expressing the V247M mutant have been treated for 24 hours with either Compound E (10 μM) or Compound D (10 μM), MG132 (positive control) or DMSO at 1‰ concentration (negative control). At the end of treatments, not permeabilized cells were incubated with a monoclonal antibody specific for an extracellular epitope of α-sarcoglycan in order to mark only the membrane resident α-sarcoglycan. By comparison, cells expressing the wild type form of α-sarcoglycan have also been used.

## COc1ccc(Cl)cc1Nc1nc(-c2sc(NC(=O)c3ccccc3)nc2C)cs1 [Compound E, N-[2-(5-Chloro-2-methoxy-phenylamino)-4′-methyl-[4,5′]bithiazolyl-2′-yl]-benzamide]
  plasma membrane localization of V247M alpha-sarcoglycan mutant: promoted the correct plasma membrane localization
